Experiments:
[1] = biological target: T1, Dopamine D3 receptor (Homo sapiens, UniProt P35462); assay: In vitro receptor binding, dopamine D3; settings: cloned cells expressing human receptors; read-out: Binding Affinities (Ki; nM) Dopamine D3
T1 construct: expressed in transfected cells

[2] = biological target: T2, serotonin 5-HT1A receptor (Homo sapiens, UniProt P08908); assay: Functional assay, effect on receptor function; assay type: biochemical
T2 sequence (P08908 1-422): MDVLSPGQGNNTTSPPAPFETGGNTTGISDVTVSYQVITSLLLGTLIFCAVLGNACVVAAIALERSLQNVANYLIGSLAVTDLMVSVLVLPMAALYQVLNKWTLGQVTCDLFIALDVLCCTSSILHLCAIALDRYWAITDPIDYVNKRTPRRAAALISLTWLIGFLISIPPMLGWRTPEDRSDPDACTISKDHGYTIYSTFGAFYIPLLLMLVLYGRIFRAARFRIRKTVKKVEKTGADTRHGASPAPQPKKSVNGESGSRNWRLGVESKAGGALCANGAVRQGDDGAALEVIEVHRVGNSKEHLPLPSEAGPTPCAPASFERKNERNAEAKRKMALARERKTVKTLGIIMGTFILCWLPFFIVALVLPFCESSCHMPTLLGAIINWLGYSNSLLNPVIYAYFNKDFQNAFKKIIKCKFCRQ
Protocol: In vitro binding studies were carried out according to the procedures well-established in the art. Membranes from male Wistar rat brain tissues or cells expressing cloned human receptors were prepared under assay conditions summarized in Ishibashi, T. et al. (Journal of Pharmacology and Experimental Therapeutics (2010)). Functional assays were carried out to analyze the binding affinity and effect on receptor function for dopamine D1-D4 receptor subtypes, serotonin 5-HT1A, 5-HT2A, 5-HT2C, 5-HT6, 5-HT7, norepinephrine α1, α2A, α2C, histamine H1 receptors, and muscarinic M1 receptors.

[3] = Short-term (6-week) and long-term (6-month, 12-month) metabolic safety study; assay type: in vivo, human
Protocol: The mean change in weight and BMI was assessed at the LOCF endpoint for the short-term study. […] FIG. 6 summarizes the mean change in weight and BMI in observed cases after 6 months and 12 months of treatment
The median change in total cholesterol and triglycerides, and glucose and HbA1c, was also assessed for both the short-term and long-term studies.

[4] = Lurasidone monotherapy for bipolar I depression, 6-week study, safety and tolerability; assay type: in vivo, human
[5] = Lurasidone adjunctive to lithium or divalproex for bipolar I depression, 6-week study, safety and tolerability; assay type: in vivo, human; settings: adjunctive to Li/VPA
Protocol: Therapeutic blood levels of Li or VPA had to be maintained for ≧28 days prior to randomization.
The total duration of treatment was 6 weeks.
Patients were required to continue treatment with lithium or divalproex during the screening period and throughout the study. Dose adjustments of lithium or divalproex were permitted during the trial to ensure that trough serum levels remained within the protocol-specified range (0.6 mEq/L to 1.2 mEq/L for lithium or […] to 125 μg/mL for divalproex).
This study also evaluated the safety and tolerability of using lurasidone in combination with lithium or divalproex. Patients were evaluated for: (1) Adverse effects, discontinuation due to adverse effects (AEs), and serious adverse effects (SAEs), (2) Movement disorders as assessed by Abnormal Involuntary Movement Scale (AIMS), Barnes Akathisia Rating Scale (BARS), and the Simpson-Angus Scale (SAS), and (3) Weight, laboratory measures, vital signs, and electrocardiograms (ECGs).

[6] = biological target: T3, noradrenaline α2C receptor (Homo sapiens, UniProt P18825); settings: background statement; cited from earlier work
T3 sequence (P18825 1-462): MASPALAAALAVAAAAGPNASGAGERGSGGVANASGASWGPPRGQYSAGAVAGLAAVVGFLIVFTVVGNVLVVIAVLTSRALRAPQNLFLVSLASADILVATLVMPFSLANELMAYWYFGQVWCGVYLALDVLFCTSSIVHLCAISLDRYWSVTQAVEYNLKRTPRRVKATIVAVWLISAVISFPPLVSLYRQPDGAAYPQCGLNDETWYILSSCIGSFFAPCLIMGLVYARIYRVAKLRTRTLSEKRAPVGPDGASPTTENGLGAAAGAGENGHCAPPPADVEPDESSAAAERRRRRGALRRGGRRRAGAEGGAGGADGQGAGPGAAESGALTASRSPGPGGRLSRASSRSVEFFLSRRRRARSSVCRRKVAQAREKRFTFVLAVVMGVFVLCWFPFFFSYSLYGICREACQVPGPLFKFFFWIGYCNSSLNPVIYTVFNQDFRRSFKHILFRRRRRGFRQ

[7] = biological target: T4, muscarinic M1 receptor (Homo sapiens, UniProt P11229); settings: background statement; cited from earlier work
T4 sequence (P11229 1-460): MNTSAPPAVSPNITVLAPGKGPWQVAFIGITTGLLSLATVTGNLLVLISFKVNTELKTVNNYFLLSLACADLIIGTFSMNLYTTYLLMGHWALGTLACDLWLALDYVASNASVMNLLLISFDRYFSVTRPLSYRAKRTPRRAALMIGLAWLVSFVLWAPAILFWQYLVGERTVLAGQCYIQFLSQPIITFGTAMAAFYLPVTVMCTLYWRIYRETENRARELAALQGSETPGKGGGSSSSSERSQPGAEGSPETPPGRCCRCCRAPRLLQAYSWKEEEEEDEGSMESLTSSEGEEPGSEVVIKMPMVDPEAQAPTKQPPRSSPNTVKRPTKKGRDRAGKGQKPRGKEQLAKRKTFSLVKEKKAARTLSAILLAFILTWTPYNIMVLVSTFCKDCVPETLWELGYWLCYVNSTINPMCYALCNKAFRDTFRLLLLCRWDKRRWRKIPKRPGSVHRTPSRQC

[8] = Lurasidone 20-60 mg, listed as LUR
[9] = Lurasidone 80-120 mg, listed as LUR

T1 sequence (P35462 whole entry): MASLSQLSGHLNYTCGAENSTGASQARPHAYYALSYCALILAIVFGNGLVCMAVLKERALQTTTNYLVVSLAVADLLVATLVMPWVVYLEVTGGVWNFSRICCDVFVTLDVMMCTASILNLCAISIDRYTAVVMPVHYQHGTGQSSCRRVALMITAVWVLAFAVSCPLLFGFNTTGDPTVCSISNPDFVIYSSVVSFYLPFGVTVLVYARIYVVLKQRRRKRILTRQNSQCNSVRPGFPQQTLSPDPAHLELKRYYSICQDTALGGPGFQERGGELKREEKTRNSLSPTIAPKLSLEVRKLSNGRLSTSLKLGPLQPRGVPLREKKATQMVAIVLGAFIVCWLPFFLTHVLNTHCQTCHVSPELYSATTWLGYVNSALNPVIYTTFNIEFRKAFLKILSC

## O=C1[C@@H]2[C@H]3CC[C@H](C3)[C@@H]2C(=O)N1C[C@@H]1CCCC[C@H]1CN1CCN(c2nsc3ccccc23)CC1 [Lurasidone]
[1]
  Ki: 15.7 nM
[2]
  effect on 5-HT1A receptor function: partial agonist
[3]; short-term (6-week) study, LOCF endpoint, patients with schizophrenia
  mean change in weight and BMI as compared to other treatments: minimal increases
[3]; short-term and long-term (6 and 12 months) studies
  disturbances in lipids or glycemic control: not associated with disturbances in lipids or glycemic control
[4]; Lurasidone 20-60 mg
  Adverse Events: Akathisia, incidence: 13 (7.9%)
  Adverse Events: Dizziness, incidence: 4 (2.4%)
  Adverse Events: Headache, incidence: 23 (14.0%)
  Adverse Events: Insomnia, incidence: 8 (4.9%)
  Adverse Events: Nausea, incidence: 17 (10.4%)
  Adverse Events: Sedation, incidence: 5 (3.0%)
  Adverse Events: Somnolence, incidence: 7 (4.3%)
  Cholesterol (mg/dL) median change (at LOCF endpoint): 0.0 mg/dL
  Glucose (mg/dL) median change (at LOCF endpoint): -1.0 mg/dL
  Triglycerides (mg/dL) median change (at LOCF endpoint): +3.0 mg/dL
  Weight (kg) mean change (at LOCF endpoint): +0.56 kg
[4]; [8]
  Adverse Events: Akathisia, incidence: 7.9%
  Adverse Events: Headache, incidence: 14.0%
  Adverse Events: Nausea, incidence: 10.4%
[4]; Lurasidone 80-120 mg
  Adverse Events: Akathisia, incidence: 18 (10.8%)
  Adverse Events: Dizziness, incidence: 10 (6.0%)
  Adverse Events: Headache, incidence: 15 (9.0%)
  Adverse Events: Insomnia, incidence: 11 (6.6%)
  Adverse Events: Nausea, incidence: 17.4%
  Adverse Events: Sedation, incidence: 12 (7.2%)
  Adverse Events: Somnolence, incidence: 11 (6.6%)
  Cholesterol (mg/dL) median change (at LOCF endpoint): -3.0 mg/dL
  Glucose (mg/dL) median change (at LOCF endpoint): 0.0 mg/dL
  Triglycerides (mg/dL) median change (at LOCF endpoint): -2.0 mg/dL
  Weight (kg) mean change (at LOCF endpoint): +0.02 kg
[4]; [9]
  Adverse Events: Akathisia, incidence: 10.8%
  Adverse Events: Headache, incidence: 9.0%
  Adverse Events: Nausea, incidence: 17.4%
[4]; lurasidone 20 to 60 mg/day
  discontinuation rates due to adverse events: 7%
[4]; lurasidone 80 to 120 mg/day
  discontinuation rates due to adverse events: 6%
[4]; monotherapy, 20-60 and 80-120 mg/day, 6 weeks
  changes in weight, lipids and measures of glycemic control: Minimal changes
[5]
  changes in weight, lipids, and measures of glucemic control: Minimal changes
  discontinuation rates due to adverse events: 6%
  most frequently reported adverse events: nausea, headache, somnolence, and tremor
[6]
  reported affinity for noradrenaline α2C receptor: high affinity
[7]
  reported affinity for muscarinic M1 receptor: minimal to no affinity
